What follows are molecules tested on wild-type IDH1 (αKG) in HT1080 cells (assay: HT1080 cell assay, intracellular αKG). Settings: highest concentration tested shown if curve did not reach 50%.
Type: cell-based

SMILES | IC50
C=CC(=O)N1CCN(C(CC2CC2)c2ccc([C@H](C)Nc3cc4c(cn3)COC(=O)N4C)cc2)CC1 (single isomer, unassigned) [Example 10] | > 20 µM
C=CC(=O)N1CCN(C(CC2CC2)c2ccc([C@H](C)Nc3ncc4c(n3)N(C)C(=O)OC4)cc2)CC1 (single isomer, unassigned) [Example 3] | > 0.2 µM
C=CC(=O)N1CCN(C(CC)c2ccc([C@H](C)Nc3ncc4c(n3)N(CC)C(=O)OC4)cc2)CC1 (single isomer, unassigned) [Example 11] | > 20 µM
C=CC(=O)N1CCN(C(CC(C)C)c2ccc([C@H](C)Nc3ncc4c(n3)N(CC)C(=O)OC4)cc2)CC1 (single isomer, unassigned) [Example 8] | > 0.2 µM
C=CC(=O)N1CCN(C(CCOC)c2ccc([C@H](C)Nc3ncc4c(n3)N(CC)C(=O)OC4)cc2)CC1 (single isomer, unassigned) [Example 13] | > 20 µM
C=CC(=O)N1CCN(C(CC2CC2)c2ccc([C@H](C)Nc3ncc4c(n3)N(C)C(=O)OC4)cc2)CC1 (single isomer, unassigned) [Example 4] | > 0.2 µM
C=CC(=O)N1CCN(C(CC2CC2)c2ccc([C@H](C)Nc3cc4c(cn3)COC(=O)N4C)cc2)CC1 (single isomer, unassigned) [Example 9] | > 20 µM
C=CC(=O)N1CCN(C(CC(C)C)c2ccc([C@H](C)Nc3ncc4c(n3)N(CC)C(=O)OC4)cc2)CC1 (single isomer, unassigned) [Example 7] | > 0.2 µM
C=CC(=O)N1CCN(C(CC)c2ccc([C@H](C)Nc3ncc4c(n3)N(CC)C(=O)OC4)cc2)CC1 (single isomer, unassigned) [Example 12] | > 20 µM
C=CC(=O)N1CCN(C(CCOC)c2ccc([C@H](C)Nc3ncc4c(n3)N(CC)C(=O)OC4)cc2)CC1 (single isomer, unassigned) [Example 14] | > 20 µM

Source: patent publication US11629156B2, “7-phenylethylamino-4H-pyrimido[4,5-d][1,3]oxazin-2-one compounds as mutant IDH1 and IDH2 inhibitors” (Eli Lilly and Company, priority 2016, dated 2023)
